US9062078B2, “Substituted 7-azabicyles and their use as orexin receptor modulators” (priority 2013, dated 2015)
Read-outs that look alike come from different tables or passages of the source.

Experiments:
[1] = target: human orexin 2 receptor (Homo sapiens (Human), UniProt O43614); test: Human orexin 2 receptor radioligand binding (competitive, [3H]-EMPA, HEK293 cell preparations)
[2] = target: rat orexin 1 receptor (Rattus norvegicus, UniProt P56718); test: Rat orexin 1 receptor radioligand binding (competitive, [3H]-SB674042, HEK293 cell preparations)
[3] = human orexin 2 receptor, [3H]-EMPA competition binding, read-out: hOX2 Ki (nm)
[4] = rat orexin 1 receptor, [3H]-SB674042 competition binding, read-out: rOX1 Ki (nm)

human orexin 2 receptor, sequence (O43614 whole entry): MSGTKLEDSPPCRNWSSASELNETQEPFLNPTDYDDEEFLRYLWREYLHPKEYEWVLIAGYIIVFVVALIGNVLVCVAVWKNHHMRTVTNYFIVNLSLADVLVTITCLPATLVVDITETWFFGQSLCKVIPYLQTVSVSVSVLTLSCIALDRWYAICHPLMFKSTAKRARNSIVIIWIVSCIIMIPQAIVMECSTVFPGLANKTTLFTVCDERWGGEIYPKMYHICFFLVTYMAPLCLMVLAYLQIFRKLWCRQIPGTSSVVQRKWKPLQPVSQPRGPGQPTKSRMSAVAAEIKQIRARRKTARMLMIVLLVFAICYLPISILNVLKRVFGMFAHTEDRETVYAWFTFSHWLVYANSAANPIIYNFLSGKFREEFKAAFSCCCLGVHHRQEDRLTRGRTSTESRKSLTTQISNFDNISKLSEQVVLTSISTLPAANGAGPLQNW

Row | Compound | Ki ([1]; hOX2 Ki (nm)) [nM] | Ki ([2]; rOX1 Ki (nm)) [nM] | Ki [1, 3] [nM] | Ki [2, 4] [nM]
1 | COc1c(F)cccc1C(=O)N1C2CCC1C(Nc1ccc(F)cn1)C2 (racemic) [Example 237, (±)-(3-fluoro-2-methoxyphenyl)(2-(((5-fluoropyridin-2-yl)amino)-7-azabicyclo[2.2.1]heptan-7-yl)methanone] | > 10000 | > 10000 |  | 
2 | O=C(c1cccc(F)c1-c1ncccn1)N1C2CCC1C(Oc1ncc(C(F)(F)F)cn1)C2 (racemic) [Example 286, (±)-(3-fluoro-2-(pyrimidin-2-yl)phenyl)(2-((5-(trifluoromethyl)pyrimidin-2-yl)oxy)-7-azabicyclo[2.2.1]heptan-7-yl)methanone] |  |  | > 10000 | > 10000
3 | Cc1ccc(-c2ncccn2)c(C(=O)N2[C@H]3CC[C@@H]2[C@@H](COc2ccccn2)C3)n1 (single isomer, unassigned) [Example 3B, (6-methyl-3-(pyrimidin-2-yl)pyridin-2-yl)((1R*,2S*,4S*)-2-((pyridin-2-yloxy)methyl)-7-azabicyclo[2.2.1]heptan-7-yl)methanone] | > 10000 | > 10000 |  | 
4 | COc1c(F)cccc1C(=O)N1C2CCC1C(Nc1cnc3ccccc3n1)C2 (single isomer, unassigned) [Example 206, (±)-(3-fluoro-2-methoxyphenyl)(2-(quinoxalin-2-ylamino)-7-azabicyclo[2.2.1]heptan-7-yl)methanone] |  |  | 1500 | 1200
5 | CCOc1ccc(C)nc1C(=O)N1C2CCC1C(Nc1ncc(C(F)(F)F)cn1)C2 (single isomer, unassigned) [Example 224, (±)-(3-ethoxy-6-methylpyridin-2-yl)(2-(5-(trifluoromethyl)pyrimidin-2-yl)amino)-7-azabicyclo[2.2.1]heptan-7-yl)methanone] |  |  | 7400 | 2500
6 | CCOc1ccc(C)nc1C(=O)N1C2CCC1C(Nc1ncc(C(F)(F)F)cn1)C2 (single isomer, unassigned) [Example 227, (±)-(3-ethoxy-6-methylpyridin-2-yl)(2-(5-(trifluoromethyl)pyrimidin-2-yl)amino)-7-azabicyclo[2.2.1]heptan-7-yl)methanone] |  |  | > 10000 | > 10000
7 | CCOc1ccc(C)nc1C(=O)N1C2CCC1C(Nc1cnc3ccccc3n1)C2 (single isomer, unassigned) [Example 229, (±)-(3-ethoxy-6-methylpyridin-2-yl)(2-(quinoxalin-2-ylamino)-7-azabicyclo[2.2.1]heptan-7-yl)methanone] |  |  | > 10000 | > 10000
8 | COc1c(F)cccc1C(=O)N1C2CCC1C(Nc1cnc3ccccc3n1)C2 (single isomer, unassigned) [Example 231, (±)-(3-fluoro-2-methoxyphenyl)(2-(quinoxalin-2-ylamino)-7-azabicyclo[2.2.1]heptan-7-yl)methanone] |  |  | > 10000 | > 10000
9 | O=C(c1cccc(F)c1-c1ncccn1)N1C2CCC1C(Oc1ncc(C(F)(F)F)cn1)C2 (single isomer, unassigned) [Example 285, (±)-(3-fluoro-2-(pyrimidin-2-yl)phenyl)(2-(5-(trifluoromethyl)pyrimidin-2-yl)oxy)-7-azabicyclo[2.2.1]heptan-7-yl)methanone] |  |  | > 10000 | 720
10 | Cc1coc(-c2ccc(C)nc2C(=O)N2[C@@H]3CC[C@H]2[C@H](COc2ccccn2)C3)n1 [Example 178, (6-methyl-3-(4-methyloxazol-2-yl)pyridin-2-yl)((1S,2R,4R)-2-((pyridin-2-yloxy)methyl)-7-azabicyclo[2.2.1]heptan-7-yl)methanone] |  |  | > 10000 | 964
11 | O=C(c1cncc2ccccc12)N1[C@@H]2CC[C@H]1[C@H](Nc1cnc(C(F)(F)F)cn1)C2 [Example 240, isoquinolin-4-yl((1S,2R,4R)-2-((5-(trifluoromethyl)pyrazin-2-yl)amino)-7-azabicyclo[2.2.1]heptan-7-yl)methanone] |  |  | 2100 | 400
12 | Cc1ccc(C(=O)N2[C@@H]3CC[C@H]2[C@H](Nc2cnc(C(F)(F)F)cn2)C3)c(-n2nccn2)n1 [Example 247, (6-methyl-2-(2H-1,2,3-triazol-2-yl)pyridin-3-yl)((1S,2R,4R)-2-((5-(trifluoromethyl)pyrazin-2-yl)amino)-7-azabicyclo[2.2.1]heptan-7-yl)methanone] |  |  | 1130 | 420
13 | O=C(c1nc2ccccc2[nH]1)N1[C@@H]2CC[C@H]1[C@H](Nc1cnc(C(F)(F)F)cn1)C2 [Example 250, (1H-benzo[d]imidazol-2-yl)((1S,2R,4R)-2-((5-(trifluoromethyl)pyrazin-2-yl)amino)-7-azabicyclo[2.2.1]heptan-7-yl)methanone] |  |  | > 10000 | 5650
14 | Cn1c(C(=O)N2[C@@H]3CC[C@H]2[C@H](Nc2cnc(C(F)(F)F)cn2)C3)nc2ccccc21 [Example 251, (1-methyl-1H-benzo[d]imidazol-2-yl)((1S,2R,4R)-2-((5-(trifluoromethyl)pyrazin-2-yl)amino)-7-azabicyclo[2.2.1]heptan-7-yl)methanone] |  |  | 5300 | 520
15 | Cc1nc2sccn2c1C(=O)N1[C@@H]2CC[C@H]1[C@H](Nc1cnc(C(F)(F)F)cn1)C2 [Example 259, (6-methylimidazo[2,1-b]thiazol-5-yl)((1S,2R,4R)-2-((5-(trifluoromethyl)pyrazin-2-yl)amino)-7-azabicyclo[2.2.1]heptan-7-yl)methanone] |  |  | > 10000 | > 10000
16 | COc1c(F)cccc1C(=O)N1C2CCC1C(Nc1nc(C)cc(C)n1)C2 (stereo not drawn) [Example 261, (2-((4,6-dimethylpyrimidin-2-yl)amino)-7-azabicyclo[2.2.1]heptan-7-yl)(3-fluoro-2-methoxyphenyl)methanone] |  |  | 5000 | > 10000
17 | O=C(c1cccc(F)c1-c1ccnnc1)N1[C@@H]2CC[C@H]1[C@H](Nc1cnc(C(F)(F)F)cn1)C2 [Example 264, (3-fluoro-2-(pyridazin-4-yl)phenyl)((1S,2R,4R)-2-((5-(trifluoromethyl)pyrazin-2-yl)amino)-7-azabicyclo[2.2.1]heptan-7-yl)methanone] |  |  | > 10000 | 1400
18 | Cc1cccc(C(=O)N2[C@@H]3CC[C@H]2[C@H](Nc2cnc(C(F)(F)F)cn2)C3)c1-c1ncco1 [Example 266, (3-methyl-2-(oxazol-2-yl)phenyl)((1S,2R,4R)-2-((5-(trifluoromethyl)pyrazin-2-yl)amino)-7-azabicyclo[2.2.1]heptan-7-yl)methanone] |  |  | 121 | 5
19 | O=C(c1cccc(F)c1-c1ccncc1)N1[C@@H]2CC[C@H]1[C@H](Nc1cnc(C(F)(F)F)cn1)C2 [Example 268, (3-fluoro-2-(pyridin-4-yl)phenyl)((1S,2R,4R)-2-((5-(trifluoromethyl)pyrazin-2-yl)amino)-7-azabicyclo[2.2.1]heptan-7-yl)methanone] |  |  | 3700 | 450
20 | O=C(c1cccc(F)c1-c1ncccn1)N1[C@@H]2CC[C@H]1[C@H](Nc1nccn3c(Br)cnc13)C2 [Example 270, ((1S,2R,4R)-2-((3-bromoimidazo[1,2-a]pyrazin-8-yl)amino)-7-azabicyclo[2.2.1]heptan-7-yl)(3-fluoro-2-(pyrimidin-2-yl)phenyl)methanone] |  |  | 145 | 325
21 | O=C(c1cccc(F)c1-c1ncccn1)N1[C@@H]2CC[C@H]1[C@H](Nc1nccn3c(C(F)(F)F)nnc13)C2 [Example 274] |  |  | 2560 | > 10000
